According to BindingDB's records for PubMed 36970145 (n/a, 2023):

Experiment: Inhibition of human 20S immuno proteosome beta5i subunit using Suc-LLVY-AMC as substrate measured after 10 mins by fluorescence based analysis

IC50 [µM] | SMILES
5.6 | COc1ccccc1NC(=O)Nc1ccc2n(c1=O)C[C@@H]1C[C@H]2CN(C(=O)c2ccc3ccccc3c2)C1
31.6 | O=C(Nc1ccccc1)Nc1ccc2n(c1=O)C[C@@H]1C[C@H]2CN(C(=O)c2ccc3ccccc3c2)C1
8.44 | O=C(Nc1ccc(Cl)cc1)Nc1ccc2n(c1=O)C[C@@H]1C[C@H]2CN(C(=O)c2ccc3ccccc3c2)C1
22.1 | N#Cc1cccc(NC(=O)Nc2ccc3n(c2=O)C[C@@H]2C[C@H]3CN(C(=O)c3ccc4ccccc4c3)C2)c1
